The values that follow are results of earlier work, collected in US20080069909A1, “MENOPAUSE DISORDER SYNERGISTIC PHYTO-NUTRACEUTICAL COMPOSITION” (priority 2006, published 2008).

Where two headings read alike, the source gives them in different places.

In data set [1] the test system is bacterial resistance mechanism (multidrug pump).
Data set [2] has as its system estrogen receptors.
Data set [3] has as its system estrogen inducible genes.
Data set [4] concerns the target beta-estrogenic receptor (Homo sapiens, UniProt Q92731).
The test system of data set [5] is estrogen receptor.

Chain of beta-estrogenic receptor (Q92731 whole entry): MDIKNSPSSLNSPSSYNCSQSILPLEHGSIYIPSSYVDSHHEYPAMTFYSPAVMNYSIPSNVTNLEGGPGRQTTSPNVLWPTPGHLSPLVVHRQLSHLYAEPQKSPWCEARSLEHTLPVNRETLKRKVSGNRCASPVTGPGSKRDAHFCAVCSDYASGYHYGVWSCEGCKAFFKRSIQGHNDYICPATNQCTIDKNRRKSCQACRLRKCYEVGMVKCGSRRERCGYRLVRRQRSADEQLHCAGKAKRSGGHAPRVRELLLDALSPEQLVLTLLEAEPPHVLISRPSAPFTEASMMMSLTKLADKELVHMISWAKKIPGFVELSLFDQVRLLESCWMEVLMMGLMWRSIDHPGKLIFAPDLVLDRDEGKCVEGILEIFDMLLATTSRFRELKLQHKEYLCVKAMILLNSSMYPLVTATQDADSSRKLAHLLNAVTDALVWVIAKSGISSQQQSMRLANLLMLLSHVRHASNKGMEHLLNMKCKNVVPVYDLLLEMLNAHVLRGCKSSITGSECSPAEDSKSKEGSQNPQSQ

Regarding `COc1cc([C@H]2Oc3cc(-c4cc(=O)c5c(O)cc(O)cc5o4)cc(OC)c3O[C@@H]2CO)ccc1O` (racemic) [5′-MHC, 5′-methoxyhydnocarpin], the “activity of herbal Berberine alkaloids” value in data set [1] (by the action of 5′-MHC) is reported as “strongly potentiated”. Moreover, in data set [1] (in the presence of 5′-MHC), the “accumulation of berberine in the cells” value is listed as “strong increase”.
Consider `CCCCC/C=C\C/C=C\CCCCCCCC(=O)O` [Linoleic acid], for which the “binding to estrogen receptors” value in data set [2] is listed as “can bind to estrogen receptors”. The “induction of estrogen inducible genes” value in data set [3] is given as “induce certain estrogen inducible genes”.
On to `COc1cc2oc(-c3ccc(O)cc3)c(OC)c(=O)c2c(O)c1OC` [Penduletin], for which the receptor ligand entry in data set [4] is “specific ligands”.
Consider `O=c1cc(-c2ccc(O)cc2)oc2cc(O)cc(O)c12` [apigenin], for which, in data set [4], the receptor ligand entry is “specific ligands”.
Turning to `O=c1c(-c2ccc(O)cc2)coc2c([C@@H]3O[C@H](CO)[C@@H](O)[C@H](O)[C@H]3O)c(O)ccc12` [puerarin], the estrogen-like effect result in data set [5] (estrogen-deficiency animals) is “weak estrogen-like effect”; in data set [5] (high-estrogen-level animals), “antiestrogen-like effect”; in data set [5] (normal-estrogen level animals), “no effect”.
